US4767770A, “Method of inhibiting aromatase” (Eli Lilly and Company, priority 1984, dated 1988)
Read-outs that look alike come from different tables or passages of the source. One block for each compound: values may come before it.

Key:
aromatase = biological target: T1, aromatase (Rattus norvegicus, UniProt P22443); assay: biochemical
T1 sequence (P22443 1-508): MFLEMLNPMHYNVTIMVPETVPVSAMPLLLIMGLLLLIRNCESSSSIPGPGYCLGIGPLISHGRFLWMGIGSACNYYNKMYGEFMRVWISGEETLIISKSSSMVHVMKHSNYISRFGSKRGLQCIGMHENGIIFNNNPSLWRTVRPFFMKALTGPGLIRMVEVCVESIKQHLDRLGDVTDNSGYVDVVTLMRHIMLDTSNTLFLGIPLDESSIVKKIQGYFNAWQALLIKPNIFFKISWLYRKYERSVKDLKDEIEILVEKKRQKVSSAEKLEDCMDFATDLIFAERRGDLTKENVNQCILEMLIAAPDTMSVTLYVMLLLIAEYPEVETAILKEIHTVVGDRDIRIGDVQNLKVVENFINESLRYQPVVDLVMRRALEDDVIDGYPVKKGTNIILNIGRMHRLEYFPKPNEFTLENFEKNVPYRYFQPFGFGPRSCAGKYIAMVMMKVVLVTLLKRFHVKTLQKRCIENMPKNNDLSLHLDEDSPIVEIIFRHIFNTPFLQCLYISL
Experimental: In this test system, ovarian microsomes are obtained from rats treated with pregnant mares serum gonadotropin. Test compounds are added to reaction vials containing 0.1 μM 4-androstene-3,17-dione, 100,000 dpm 1,2[^3 H]-androstenedione, the microsomes and a NADPH generating system. The concentrations of the inhibitors tested ranged between 0.005 and 10 μM.

[1] = test system: estrogen synthesis (aromatization); uterus; assay: Estrogen Synthesis Inhibition in Rats: uterine weight of testosterone propionate-treated immature rats; format: in vivo, immature female Wistar rats; settings: 7 days
Experimental: Immature female Wistar rats (45-55 grams) were divided into control and test groups of 2-8 animals each. Test compounds were administered for seven days as a component of the diet. Control animals received diet without the test compound. Beginning on the fourth day of the test, all animals treated with the test compound and one half of the control animals were given a subcutaneous injection of 1.0 mg of testosterone propionate in corn oil. The remaining control animals received only an equivalent volume of corn oil. On the seventh day of the test, rats treated with testosterone propionate were injected subcutaneously with 100 μCi of [^3 H]-testosterone in 50 μl of 3:1 (v/v) saline-ethanol.
After two hours, the animals were killed by decapitation. Uteri were isolated, trimmed of extraneous connective tissue, and weighed. […] In the control animals treated with testosterone propionate, estrogens produced by aromatization stimulated the uterus resulting in an increase in weight.
*ppm in feed. 300 ppm corresponds to approximately 30 mg/kg/day; 200 ppm
corresponds to approximately 20 mg/kg/day; 30 ppm corresponds to
approximately 3 mg/kg/day.

[2] = test system: estrogen synthesis (ovarian estradiol, estrone, estriol); assay: Estrogen Synthesis Inhibition in Rats: ovarian steroid concentration after [3H]-testosterone; format: in vivo, immature female Wistar rats; settings: 7 days
Experimental: Test compounds were administered for seven days as a component of the diet. Control animals received diet without the test compound. Beginning on the fourth day of the test, all animals treated with the test compound and one half of the control animals were given a subcutaneous injection of 1.0 mg of testosterone propionate in corn oil. The remaining control animals received only an equivalent volume of corn oil.
The ovarian steroids were extracted with 1.5 ml of 9:1 (v/v) toluene/ethanol to which had been added 25 to 100 mcg each of unlabelled estradiol, estriol, and estrone, and approximately 1000 dpm of [^14 C]-estradiol. The samples were vortexed, centrifuged at 500×g for 10 minutes, and the organic phase was transferred to a conical vial. Two additional extractions were performed on the residue in the same way. The pooled organic extracts were evaporated for subsequent thin-layer chromatography.
Ovarian proteins were precipitated by the addition of 5.0 ml of ethanol to the remaining aqueous phase. After an overnight incubation at 4° C., the samples were centrifuged at 1500×g for 10 minutes. The supernatant was discarded and the pellet was dissolved in 0.3N potassium hydroxide.
The organic residue from each above extraction was redissolved in 9:1 (v/v) dichloromethane/methanol. The solution of each sample was applied to separate silica gel thin layer chromatography plates which contained a fluorescent indicator. The plates were developed in the first dimension with 160:38:1.5:0.5 (v/v/v/v) dichloromethane/ethyl acetate/methanol/acetic acid to within 3 cm of the top of the plate. After air-drying, the plate was developed in the second dimension with 180:19:1 (v/v/v) dichloromethane/methanol/ammonium hydroxide.
The spots were scraped from the plate using a glass wool plugged Pasteur pipet attached to a vacuum line. The steroids were eluted directly into scintillation vials by the addition of 0.2 ml of dichloromethane followed by two washes each of 2.0 ml of methanol. The organic solvent was evaporated and 10.0 ml of scintillation fluid (Beckman Ready Solv-NA) was added to the vials. Samples were analyzed by liquid scintillation spectrometry. Corrections were made based on the recoveries of the [^14 C]-steroid. Steroid concentrations are expressed as femtomoles per milligram protein.

[3] = test system: DMBA-induced mammary tumors; assay: DMBA-induced Mammary Tumor Inhibition; format: in vivo, female Sprague-Dawley rats; settings: Test II, 300 ppm in diet (approx. 30 mg/kg/day), 4 weeks
Experimental: Mammary tumors were produced in female Sprague-Dawley rats which were 50-60 days old by the gavage administration of 20 mg of 7,12-dimethylbenz[a]anthracene (DMBA). About six weeks after DMBA administration, the mammary glands were palpated at weekly intervals for the appearance of tumors. Whenever one or more tumors appeared and were measurable in an animal, that animal was selected for experimentation. […] Each control and test group contained 8 animals. The test compound was administered mixed into the food at a concentration of 300 ppm (corresponding to an appropriate daily dose of 30 mg/kg). Every experiment included a group of control rats having tumors and were given food without the compound admixed. […] The area of each tumor was calculated by multiplying the shortest and longest diameters of the tumor. The treatment and measurement of animals continued for 4-5 weeks at which time the final areas of the tumors were determined. For each compound (and control) at each dose level, the change in the mean tumor area was determined.
*dosed in the diet. 300 ppm corresponds to approximately 30 mg/kg/day.

[4] = Test IV, 200 ppm in feed (approx. 20 mg/kg/day), testosterone-treated control 213.5
[5] = Test IV, 200 ppm in feed (approx. 20 mg/kg/day), testosterone-treated control 0.14
[6] = Test IV, 200 ppm in feed (approx. 20 mg/kg/day), testosterone-treated control 0.24
[7] = Test IV, 200 ppm in feed (approx. 20 mg/kg/day), testosterone-treated control 1.98
[8] = rat ovarian microsomes, substrate (androstenedione) 0.1 μM

SMILES: Clc1ccc(N(Cc2cnccn2)C2=NCCS2)cc1 [N--(4-chlorophenyl)-N--(4,5-dihydro-2-thiazolyl)-2-pyrazinemethanamine]
EC50 (aromatase): 3.13 µM

SMILES: Clc1ccc(N(Cc2cccnc2)C2=NCCCS2)cc1 [N--(4-chlorophenyl)-5,6-dihydro-N--(3-pyridylmethyl)-4H--1,3-thiazin-2-amine]
EC50 (aromatase): 0.072 µM
Mean Uterine Weight [1, 4]: 193.0 mg
Mean Steroid Concentration, estriol [2, 5]: 0.04 femtomoles per milligram of protein
Mean Steroid Concentration, estrone [2, 6]: 0.11 femtomoles per milligram of protein
Mean Steroid Concentration, estradiol [2, 7]: 1.54 femtomoles per milligram of protein

EC50 (aromatase; [8]): 3.2 µM
SMILES: CSc1ccc(N(Cc2cccnc2)C2=NCCS2)cc1 [N--(4,5-dihydro-2-thiazolyl)-N--[4-(methylthio)phenyl]-3-pyridinemethanamine]

SMILES: Clc1ccc(N(Cc2cccnc2)C2=NCCS2)cc1 [N--(4-chlorophenyl)-N--(4,5-dihydro-2-thiazolyl)-3-pyridinemethanamine]
EC50 (aromatase): 0.068 µM
Mean Uterine Weight ([1]; Test I, 30 ppm in feed (approx. 3 mg/kg/day), value marked + (p < 0.05 vs testosterone-treated control, 211.5)): 141.5 mg
Mean Uterine Weight ([1]; Test I, 300 ppm in feed (approx. 30 mg/kg/day), value marked + (p < 0.05 vs testosterone-treated control, 211.5)): 136.0 mg
Mean Steroid Concentration, estrone ([2]; Test I, 30 ppm in feed (approx. 3 mg/kg/day), testosterone-treated control 0.10): 0.31 femtomoles per milligram of protein
Mean Steroid Concentration, estriol ([2]; Test I, 30 ppm in feed (approx. 3 mg/kg/day), testosterone-treated control 0.24): 0.27 femtomoles per milligram of protein
Mean Steroid Concentration, estradiol ([2]; Test I, 30 ppm in feed (approx. 3 mg/kg/day), testosterone-treated control 1.43): 1.46 femtomoles per milligram of protein
Mean Steroid Concentration, estrone ([2]; Test I, 300 ppm in feed (approx. 30 mg/kg/day), testosterone-treated control 0.10): 0.09 femtomoles per milligram of protein
Mean Steroid Concentration, estriol ([2]; Test I, 300 ppm in feed (approx. 30 mg/kg/day), testosterone-treated control 0.24): 0.46 femtomoles per milligram of protein
Mean Steroid Concentration, estradiol ([2]; Test I, 300 ppm in feed (approx. 30 mg/kg/day), testosterone-treated control 1.43): 1.42 femtomoles per milligram of protein
Mean Tumor Area, Start ([3]; baseline, control 62.8): 61.4 mm^2
Mean Tumor Area, Finish ([3]; control 1087.0): 464.0 mm^2

SMILES: Clc1ccc(N(Cc2cncnc2)C2=NCCS2)cc1 [N--(4-chlorophenyl)-N--(4,5-dihydro-2-thiazolyl)-5-pyrimidinemethanamine]
EC50 (aromatase): 0.61 µM

EC50 (aromatase; [8]): 0.9 µM
SMILES: Clc1ccc(CCN(Cc2cccnc2)C2=NCCS2)cc1 [N--(4,5-dihydro-2-thiazolyl)-N--[2-(4-chlorophenyl)ethyl]-3-pyridinemethanamine]

SMILES: CC(c1ccc(F)cc1)N(C1=NCCS1)C(C)c1cccnc1 (stereo not drawn) [N--(4,5-dihydro-2-thiazolyl)-N--[1-(4-fluorophenyl)ethyl]-α-methyl-3-pyridinemethanamine]
EC50 (aromatase): 3.3 µM

EC50 (aromatase; [8]): 2.35 µM
SMILES: CC(c1cccnc1)N(C1=NCCS1)c1ccc(Cl)cc1 (stereo not drawn) [N--(4-chlorophenyl)-N--(4,5-dihydro-2-thiazolyl)-α-methyl-3-pyridinemethanamine]

SMILES: CC(c1ccc(Cl)cc1)N(Cc1cccnc1)C1=NCCS1 (centres unmarked) [N--[1-(4-chlorophenyl)ethyl]-N--(4,5-dihydro-2-thiazolyl)-3-pyridinemethanamine]
EC50 (aromatase): 0.048 µM
Mean Uterine Weight [1, 4]: 185.8 mg
Mean Steroid Concentration, estriol [2, 5]: 0.04 femtomoles per milligram of protein
Mean Steroid Concentration, estrone [2, 6]: 0.13 femtomoles per milligram of protein
Mean Steroid Concentration, estradiol [2, 7]: 1.01 femtomoles per milligram of protein

SMILES: Clc1ccc(N(Cc2cccnc2)C2=NCCO2)cc1 [N--(4-chlorophenyl)-N--(4,5-dihydro-2-oxazolyl)-3-pyridinemethanamine]
EC50 (aromatase): 0.08 µM

SMILES: Brc1ccc(N(Cc2cccnc2)C2=NCCS2)cc1 [N--(4,5-dihydro-2-thiazolyl)-N--(4-bromophenyl)-3-pyridinemethanamine]
EC50 (aromatase): 0.11 µM

EC50 (aromatase; [8]): 0.44 µM
SMILES: Cc1cc(Cl)ccc1N(Cc1cccnc1)C1=NCCS1 [N--(4-chloro-2-methylphenyl)-N--(4,5-dihydro-2-thiazolyl)-3-pyridinemethanamine]

EC50 (aromatase; [8]): 1.95 µM
SMILES: CC1CSC(N(c2ccc(Cl)cc2)C(C)c2cccnc2)=N1 (stereo not drawn) [N--(4-chlorophenyl)-N--(4,5-dihydro-4-methyl-2-thiazolyl)-α-methyl-3-pyridinemethanamine]

SMILES: c1ccc(N(Cc2cccnc2)C2=NCCS2)cc1 [N--(4,5-dihydro-2-thiazolyl)-N--phenyl-3-pyridinemethanamine]
EC50 (aromatase): 0.46 µM

SMILES: CC1CSC(N(Cc2cccnc2)c2ccc(Cl)cc2)=N1 (centres unmarked) [N--(4-chlorophenyl)-N--(4,5-dihydro-4-methyl-2-thiazolyl)-3-pyridinemethanamine]
Mean Uterine Weight ([1]; Test III, 30 ppm in feed (approx. 3 mg/kg/day), testosterone-treated control 220.0): 225.5 mg
Mean Uterine Weight ([1]; Test III, 300 ppm in feed (approx. 30 mg/kg/day), testosterone-treated control 220.0): 187.6 mg
Mean Steroid Concentration, estrone ([2]; Test III, 30 ppm in feed (approx. 3 mg/kg/day), testosterone-treated control 1.02): 1.14 femtomoles per milligram of protein
Mean Steroid Concentration, estradiol ([2]; Test III, 30 ppm in feed (approx. 3 mg/kg/day), testosterone-treated control 1.31): 2.40 femtomoles per milligram of protein
Mean Steroid Concentration, estriol ([2]; Test III, 30 ppm in feed (approx. 3 mg/kg/day), testosterone-treated control 1.32): 1.56 femtomoles per milligram of protein
Mean Steroid Concentration, estrone ([2]; Test III, 300 ppm in feed (approx. 30 mg/kg/day), testosterone-treated control 1.02): 0.62 femtomoles per milligram of protein
Mean Steroid Concentration, estradiol ([2]; Test III, 300 ppm in feed (approx. 30 mg/kg/day), testosterone-treated control 1.31): 0.95 femtomoles per milligram of protein
Mean Steroid Concentration, estriol ([2]; Test III, 300 ppm in feed (approx. 30 mg/kg/day), testosterone-treated control 1.32): 0.37 femtomoles per milligram of protein

SMILES: Clc1ccc(CN(Cc2cccnc2)C2=NCCS2)c(Cl)c1 [N--(4,5-dihydro-2-thiazolyl)-N--(2,4-dichlorobenzyl)-3-pyridinemethanamine]
EC50 (aromatase): 0.118 µM
